Here are results for 42 compounds from PubChem BioAssay (NCI).

Where “and” joins values, the source holds several entries; their conditions need not be identical. Identical values can stand only once.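 Cultured in 96-well plates, cells were exposed to test compound for 48 hours across five concentrations. GI50: concentration for 50% inhibition of growth. TGI: concentration producing complete growth inhibition.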 Where a SMILES comes first, the peptide text is derived from it. [ ]: non-standard residue; d: D form. The star is where a group is joined. ξ: configuration not given here. X3 = COc1ccc(C(N*)c2ccc(OC)cc2)cc1; NMeF = CN[C@@H](Cc1ccccc1)C(=O)O; NMeD = CN[C@@H](CC(=O)O)C(=O)O; NMeV = CN[C@H](C(=O)O)C(C)C; ξNMeV = CNC(C(=O)O)C(C)C; Boc = CC(C)(C)OC(=O)*; ξNMeA = CNC(C)C(=O)O; ξV = CC(C)C(N)C(=O)O

Experiment in all cases: growth of human tumour cells (NCI), 48 h
The test system of assay [1] is HOP-18 NSCLC.
For assay [2], the system named is KM20L2 colon.
For assay [3], the system named is M19-MEL melanoma.
Assay [4] deals with RXF-631 renal.
In assay [5] the test system is XF 498 CNS.
In assay [6] the test system is DMS 114 small cell lung.
For assay [7], the system named is LXFL 529 NSCLC.
The test system of assay [8] is SNB-78 CNS.
Assay [9] relates to MDA-N.
For assay [10], the system named is SN12K1 renal.

`COc1ccc(OC)c(N2CC(N)C2=O)c1` (centres undefined): the TGI in assay [1], in [2], in assay [3], in assay [4] and in assay [5] was over 100 µM each time.

For `O=c1ccc2ccccc2cc1[O-].O=c1ccc2ccccc2cc1[O-].[O]=[U+2]=[O]`, the GI50 in assay [6] was 19.9 µM; in assay [2], 4.5 µM; in assay [7] it was 16.8 µM; in [3] it was 24.8 µM; in assay [4], 11.1 µM; in assay [5] it was 19.5 µM. The TGI in assay [6] is 55.3 µM; in assay [2], 90.1 µM; in assay [7] it was 51.6 µM; in assay [3] it was 96.7 µM; in assay [4], 41.6 µM; in [5] it was 40 µM.

For `O=C1C=CC(=O)c2nc3c(cc21)CCC3`, the TGI in [6] is 42.5 µM; in assay [1] it was 39.8 µM; in assay [7] it was 29 µM; in assay [3], 31.2 µM; in assay [4], over 100 µM; in assay [8] it was 42 µM. In assay [5], this compound displayed a TGI of 32.9 µM.

In the case of `CC(=O)NNc1nc(C)c(C(=O)/C=C/c2ccc(NC(C)=O)cc2)s1`, the TGI in [1], in assay [2], in assay [3], in assay [4] and in [8] was over 100 µM in each case.

Take `CC(=O)OCCOCNC(=S)N/N=C(\C)c1cnccn1`: the TGI is 51.4 µM in assay [6]; 97.5 µM in assay [1]; 81.3 µM in assay [2]; over 100 µM in assay [7]; 46.3 µM in [3]; over 100 µM in assay [8]. Further, the TGI in assay [5] is over 100 µM.

Turning to `CN(C)CC1CC/C(=C\c2ccc(O)cc2)C1=O` (centres undefined), the TGI in assay [6] came out at 23.5 µM; in assay [1], 15.9 µM; in [2] it was 22.1 µM; in [7], 3.45 µM; in [3], 7.55 µM; in assay [9], 6.8 µM. In addition, the TGI in assay [10] stood at 3.4 µM; in [8] it was 17.9 µM; in assay [5], 11.3 µM.

As to `CCCCN(CCCC)C(=O)C(=O)C(C(=O)c1ccc(OC)cc1)c1ccc(OC)cc1` (centres undefined), the TGI in [6], in [1], in assay [2], in assay [7], in [4] and in assay [8] was over 100 µM throughout.

For `CC(C)(C)c1cc2ccc(C(N)=O)cc2c(=O)[nH]1`, the TGI in [6], in [1], in assay [2], in assay [7], in assay [3] and in assay [4] was over 100 µM each time. The TGI in [8] is over 100 µM.

For `C=CC[C@H](C[C@H](C[C@H](C[C@H](C[C@H](C[C@H](C[C@H](C[C@H](C[C@H](C[C@H](CCCCC)OC)OC)OC)OC)OC)OC)OC)OC)OC)OC`, the TGI in assay [6], in assay [1], in assay [2], in assay [3], in assay [8] and in [5] was over 100 µM in each case.

On to `Cc1ccc(/C=C/C(=O)CCN(C)C)cc1`, for which the TGI in [6] was 32.5 µM; in assay [1] it was 38.4 µM; in assay [2] it was 37.2 µM; in assay [7] it was 34.2 µM; in [3], 38.7 µM; in assay [8], 87 µM. Moreover, in assay [5], the TGI worked out at 28.5 µM.

With `O=C(/C=C/c1ccc([N+](=O)[O-])cc1)c1ccc(NCc2nc3ccccc3[nH]2)cc1`, the TGI in assay [6] is 7.44 µM; in assay [1], 31.3 µM; in assay [2], 15.3 µM; in assay [7], 8.61 µM; in assay [3], 15.3 µM; in [4] it was 19.7 µM. The figures for the TGI in assay [8] and in assay [5] were 29 µM and 20.2 µM, respectively.

Take `O=c1c(-c2ccccc2)c2oc(c1-c1ccccc1)CSCc1cccc(c1)CSC2`: the TGI in assay [6], in assay [1], in assay [2], in [7], in assay [3] and in assay [8] was over 100 µM throughout.

Take `Oc1[nH]c2ccccc2c1N=Nc1nc(-c2ccc(Br)cc2)cs1`: the TGI in [9] is over 100 µM.

For the compound `COc1nc(NC2OC(COC(C)=O)C(OC(C)=O)C(OC(C)=O)C2OC(C)=O)c2c(OC(C)=O)cc(=O)oc2n1` (centres undefined), the TGI in assay [6], in assay [1], in [2], in [7], in assay [3] and in [8] was over 100 µM throughout. In assay [5], this compound yielded a TGI of over 100 µM.

On to `CCc1c(OC(C)=O)c2c(NC3OCC(OC(C)=O)C(OC(C)=O)C3OC(C)=O)nc(SC)nc2oc1=O` (centres undefined), for which the TGI in assay [1], in assay [2], in assay [7], in assay [3], in assay [4] and in assay [8] was over 100 µM each time. The compound further gave a TGI in assay [5] of over 100 µM.

Regarding `S=c1sc2c(n1-c1ccccc1)NC=NC2S` (centres undefined), the TGI in assay [6] is over 100 µM; in assay [1], 92.1 µM; in assay [2], over 100 µM; in assay [7], over 100 µM; in [3], over 100 µM; in assay [8], over 100 µM. Further, the TGI in [5] is over 100 µM.

The compound `O=C1CN(c2cccc(Cl)c2)C(=O)CN1CCN1CC(=O)N(c2cccc(Cl)c2)CC1=O` returned a TGI in assay [9] of over 100 µM.

Consider `CC(=O)O/N=C(/C)c1ccccc1O`, for which the TGI in [6], in [1], in assay [2], in [7], in [3] and in assay [8] was over 100 µM each time. In addition, the TGI in [5] was over 100 µM.

As to `COc1cc(C2CC(C)(O)Oc3cc4c(cc32)OCO4)cc(OC)c1OC` (centres undefined), the TGI in [9] worked out at 0.43 µM.

The compound `COc1cccc(C2SC(N)=Nc3c2c(C)nn3C(=O)c2ccccc2O)c1` (centres undefined) showed a TGI in assay [9] of over 10 µM.

On to `Cc1ccc(Oc2ccc(C)cc2N)cc1`, for which the TGI in assay [6], in assay [1], in assay [2], in [7], in assay [3] and in assay [8] was over 100 µM in each case.

For the compound `C/C(CCn1[nH]c(=O)ccc1=O)=N\NC(=O)C(=O)NN`, the TGI in assay [1], in assay [2], in [7], in [3], in [4] and in assay [5] was over 100 µM in each case.

In the case of `CC(C)=CCC(O)C1=CC(=O)c2c(O)ccc(O)c2C1=O` (centres undefined), in assay [9], the TGI is 2.3 µM.

Consider `CC(=O)CC(OC(C)=O)C1=CCC2C(CC1C)OC(=O)C2C` (centres undefined), for which, in assay [9], the TGI was over 100 µM.

For `CCCCCC[C@@H]1CCC2C(CO)[C@@H](O)CC[C@@H]2C1` (some centres undefined), the TGI came out at 37.5 µM in assay [6]; 43 µM in assay [1]; 33.7 µM in assay [2]; 32.6 µM in assay [7]; 35.3 µM in assay [3]; 41.3 µM in assay [8]. Also, the TGI in [5] amounted to 39.8 µM.

In turn, `O=C(O)c1nc2nc(Cl)c(Cl)nc2[nH]1` returned a TGI in assay [9] of over 100 µM.

With `CC1=C2C(=C[C@@](C)(CO)[C@@H]2O)C(=O)[C@](C)(O)C12CC2`, the TGI in [9] was 0.0272 µM and 0.0105 µM.

Regarding `O=C(Nc1ccccc1-c1nn(C(=S)Nc2ccccc2)c(=S)n(C(=S)Nc2ccccc2)c1=O)C(F)(F)F`, the TGI in assay [6] was 38.9 µM; in [1], over 100 µM; in assay [2], over 100 µM; in assay [7] it was 54 µM; in [3], over 94.9 µM; in assay [8], over 100 µM. Further, in [5], the TGI is 61.5 µM.

Take `c1ccc(NCn2cnc3ccccc32)cc1`: the TGI in assay [6], in assay [1], in [2], in assay [7], in assay [3] and in [4] was over 100 µM each time. Moreover, the TGI in assay [8] and in assay [5] was over 100 µM each time.

Consider `N[C@@H]1CCCC[C@@H]1N.O=P([O-])([O-])CN(CCN(CP(=O)([O-])[O-])CP(=O)([O-])[O-])CP(=O)([O-])[O-].[Pt+2]`, for which, in assay [2], the GI50 was over 25 µM and the TGI is over 25 µM.

Consider `CCOC(=O)C1=C(C(=O)OCC)C2c3ccccc3C=CN2C(C(=O)OCC)=C(SC)S1` (centres undefined), for which the TGI in assay [6], in assay [2], in assay [7], in assay [3] and in [8] was over 100 µM in each case.

With `CC1(C)OC1COc1c2occc2cc2ccc(=O)oc12` (centres undefined), in [9], the TGI is over 100 µM.

On to `COc1ccc(C(NC(=O)C[C@@H](C(=O)N(C)C(C)C(=O)O)N(C)C(=O)[C@@H]2CCCN2C(=O)[C@H](C(C)C)N(C)C(=O)C(C(C)C)N(C)C(=O)[C@H](Cc2ccccc2)N(C)C(=O)C(NC(=O)OC(C)(C)C)C(C)C)c2ccc(OC)cc2)cc1` (some centres undefined) (Boc-[ξV][NMeF][ξNMeV][NMeV]P[NMeD](X3)[ξNMeA]-OH), for which the TGI in assay [6] stood at 33.4 µM; in assay [2], 37.6 µM; in assay [7], 27.9 µM; in assay [3], 34.4 µM; in assay [9], 32.7 µM; in [8], 36.5 µM. The TGI in assay [5] was 29.5 µM.

In the case of `O=[N+]([O-])c1ccc(Cl)cc1N/N=C/c1ccnc2ccccc12`, in [9], the TGI is over 100 µM.

Take `O=C1CCC2(c3ccc(Cl)cc3)Nc3ccncc3N12` (centres undefined): the TGI in assay [9] was over 10 µM.

Consider `O=C(/C=C/c1ccc(O)cc1)c1ccc(O)cc1`, for which the TGI in assay [6] is 43.8 µM; in assay [1], over 100 µM; in [2] it was 47 µM; in assay [3], 42.2 µM; in assay [9] it was over 88.4 µM; in [8], over 100 µM. This compound came in with a TGI in assay [5] of 34.1 µM.

Turning to `COC(=O)CC(c1ccccc1)C1(c2ccccc2)SCCS1` (centres undefined), the TGI in assay [6], in assay [1], in assay [2], in assay [7], in [3] and in assay [4] was over 290 µM throughout. In assay [5], this compound showed a TGI of over 290 µM.

In [9], `NC(=O)C(=Cn1c(=S)[nH]c2ccc([N+](=O)[O-])cc21)C(N)=O` registered a TGI of over 100 µM.

For the compound `CC(C)(C)c1cc2c(O)c3cccc4c(=O)c5cccc6c5-c(c34)c2c(c1)c6=O`, the TGI is over 100 µM in [1]; over 100 µM in assay [2]; over 100 µM in [7]; over 100 µM in [3]; 88.5 µM in [5].

In the case of `Cc1ccc(/C=C/C(=O)c2cccc3ccccc23)cc1`, the TGI turned out to be 31 µM in assay [2]; 25.3 µM in assay [7]; 49.9 µM in assay [3]; 31.4 µM in [8]; 28.7 µM in assay [5].

The compound `O=C(O)c1ccc2c(c1C(=O)O)C(=O)OC2(c1ccc(O)cc1)c1ccc(O)cc1` came in with a TGI in [9] of over 100 µM.

`CC(C)c1cc2c(cc1S(=O)(=O)O)[C@@]1(C)CCC[C@@](C)(C(=O)O)C1CC2` (some centres undefined): in [9], the TGI was over 100 µM.
